{"source": "patent US8936807B2", "about": "“Use of the cathelicidin LL-37 and derivatives thereof for wound healing” (Lipopeptide AB, priority 2003, dated 2015)", "key": {"[1]": {"test": "Circular dichroism (CD) conformational measurements", "assay_type": "physicochemical", "experimental": "(§1) Samples for circular dichroism (CD) measurements were prepared in 10 mM aqueous phosphate buffer solution, pH 7.0, containing 200 ppm LL-37 (as the trifluoroacetate, lot 971/26), with and without 0.40% CPL-Galactolipid. The samples, 20 ml in 50 ml glass flasks, were vigorously shaken with an ST mixer (type B1, E. Büchler, Tübingen) set at 7.5 (corresponding to an approximate frequency of 220/min) for 2 h. They were then allowed to equilibrate and settle over night at 2-8° C.\nCD spectra were recorded on a Jasco J-720 (Jasco Inc.) spectropolari-meter. The sample compartment with the cuvette cell (1 mm path length) was placed near the photomultiplier, in order to reduce effects of light scattering from the disper-sions. The samples were measured at room temperature and scanned from 280 to 200 nm at a rate of 20 nm/min, with a resolution of 1 nm and 3 accumulations per run. The results are expressed as the mean residue ellipticity, [θ], and the percentage of α-helical conformation at 222 nm is estimated by the following formula: ([θ]222+3900)·100/41900."}, "[2]": {"test": "Storage of the CD samples for one month at 4° C.", "assay_type": "physicochemical", "experimental": "as §1\nAn anionic synthetic phospholipid, palmitoyl-oleoyl-phosphatidylglycerol (POPG; Sigma-Aldrich, P6956) was used as a reference and tested using the same experimental conditions as described above."}, "HaCat cells [3]": {"tested_on": "HaCat cells", "test": "Proliferation and viability of HaCat cells measured by mitochondrial activity (WST-1)", "assay_type": "cell-based, human", "conditions": "LL-37 100 μg/ml, 10% serum, 48 h", "experimental": "HaCat cells were used for these experiments. HaCat cells are an immortalized human keratinocyte cell line (Boukamp et al., J Cell Biol 106:761-771, 1988), which is suitable for experimental keratinocyte research. HaCat cells were cultured in medium (DMEM, +10% FCS and PEST). Both types of cell cultures were treated with synthetic, bioactive LL-37 (lot YS 5253). In addition a mixture of LL-37 (114 μg/ml) and CPL-Galactolipid (0.2%) in medium containing serum at either 2 or 10% was added to evaluate the capacity to increase proliferation and inhibit cytotoxicity. Cells were harvested at different time-points (24 h, 48 h, 72 h and 96 h) and counted by flowcytometry (Becton-Dickinson) and stained by Trypan-Blue to evaluate viability. […] Proliferation and viability were also ascertained by measuring mitochondrial activity (WST-1, Roche, Cook et al. Anal Biochem 179:1-7, 1989)."}, "HaCat cells [4]": {"tested_on": "HaCat cells", "test": "Proliferation of HaCat cells assessed by 3H-Thymidine incorporation", "assay_type": "cell-based, human", "conditions": "10% serum, 96 h; for Increased Proliferation (%): vs control 0 μg/ml", "experimental": "HaCat cells were cultured in medium (DMEM, +10% FCS and PEST). HaCaT cells were plated in 96 well plates (Falcon, USA) at the concentration of 2000 cells per well. Cells were plated at −48 hours and stimulated with different concen-trations of synthetic LL-37, LL-36, and LL-38 peptide by hour 0 and after 48 hours.\nThe testing was done in one experiment with 6 wells in each condition. […] of ^3H-Thymidine (THYMIDINE, [METHYL-^3H]-740.0 GBq/mmol (20.00 Ci/mmol) 1.0 ml of Ethanol:Water, 7:3, Perkin Elmer Life Sciences Inc. Boston Mass., USA) was added to each well and incubated for 12-17 hours. Proliferation was evaluated by ^3H-Thymidine incorporation a liquid scintilator (MicroBeta Perkin Elmer Life Sciences Inc. Boston Mass., USA) after 72 and 96 hours."}, "Human Wound Fibroblast": {"tested_on": "Human Wound Fibroblast", "test": "Proliferation and viability of human wound fibroblasts (WST-1)", "assay_type": "cell-based", "conditions": "48 Hours; for Increased Proliferation (%): vs control", "from_the_text": "(§2) The peptide LL-37 used in this and following tests was as described in Example 1 (lot 971/26). The fibroblasts, a type of stromal cells, were obtained from injured and uninjured skin in patients with chronic leg ulcers due to venous insufficiency. Punch-biopsies (4-mm) were taken from the wound margin including 50% of the epithelialized area and from uninjured skin in the knee region. Individuals with a history of diabetes mellitus, arterial insufficiency or chronic inflammatory disease were excluded. Patients with signs of eczema in the ulcer margin, clinical signs of infection or undergoing systemic or topical antibiotic treatment at the time for biopsy were also excluded. Patients included were all treated with inert local dressings and standard compression bandaging.\n(§3) Fibroblast were put in culture using explant technique (Hehenberger et al., Cell Biochem Funct 15:197-201, 1997). Fibroblasts were plated in 96 well plates (Falcon, USA) at the concentration of 2000 cells per well. Cells were plated at −48 hours and stimulated with different concentrations of synthetic LL-37 peptide by hour 0. The testing was done in one experiment with 6 wells in each condition. Proliferation and viability were ascertained by measuring mitochondrial activity (WST-1, Roche) after 24 h and 48 h. Increase in cell proliferation (Proliferation Index) is calculated in comparison with baseline (Control=0 μg/ml). Mean values from six samples per condition in one experiment are presented."}, "Human Normal Fibroblast": {"tested_on": "Human Normal Fibroblast", "test": "Proliferation and viability of human normal fibroblasts (WST-1)", "assay_type": "cell-based", "conditions": "10% serum, 48 Hours; for Increased Proliferation (%): vs control", "from_the_text": "as §2, §3"}, "[5]": {"conditions": "LL-37 25 μg/ml, no lipid, 10% serum"}, "[6]": {"conditions": "LL-37 50 μg/ml, no lipid, 10% serum"}, "[7]": {"conditions": "LL-37 100 μg/ml, no lipid, 10% serum"}, "[8]": {"conditions": "LL-37 100 μg/ml, with lipid 0.2%, 2% serum"}}}
{"sequence": "LLGDFFRKSKEKIGKEFKRIVQRIKDFLRNLVPRTES [LL-37]", "values": [{"measurement": "percentage α-helical structure", "setting": "[1]; 200 ppm LL-37 in 10 mM phosphate buffer, pH 7.0, from minimum at 222 nm", "value": "about 63%"}, {"measurement": "percentage α-helical structure", "setting": "[1]; 200 ppm LL-37 with 0.40% (w/w) galactolipid, 10 mM phosphate buffer pH 7.0", "value": "~64", "unit": "%"}, {"measurement": "percentage α-helical structure", "setting": "[1]; LL-37 with POPG (anionic phospholipid), same conditions", "value": 58, "unit": "%"}, {"measurement": "appearance after storage", "setting": "[2]; LL-37 with POPG", "value": "partially separated, with sediments on the bottom of the container"}, {"measurement": "appearance after storage", "setting": "[2]; LL-37 with galactolipid", "value": "redispersed to a fine dispersion by gentle agitation"}, {"measurement": "Absorbance", "setting": "HaCat cells [3]", "value": 1.110}, {"measurement": "Trypan Blue + (%)", "setting": "HaCat cells [3]", "value": "<1", "unit": "%"}, {"measurement": "Increased Proliferation (%)", "setting": "HaCat cells [3]; vs baseline", "value": 78, "unit": "%"}, {"measurement": "Counts Per Minute (Mean)", "setting": "HaCat cells [4]; LL-37 1.00 μg/ml", "value": 75445, "unit": "Counts Per Minute"}, {"measurement": "Increased Proliferation (%)", "setting": "HaCat cells [4]; LL-37 1.00 μg/ml", "value": 43, "unit": "%"}, {"measurement": "Counts Per Minute (Mean)", "setting": "HaCat cells [4]; LL-37 5.00 μg/ml", "value": 102353, "unit": "Counts Per Minute"}, {"measurement": "Increased Proliferation (%)", "setting": "HaCat cells [4]; LL-37 5.00 μg/ml", "value": 94, "unit": "%"}, {"measurement": "Counts Per Minute (Mean)", "setting": "HaCat cells [4]; LL-37 10.00 μg/ml", "value": 73548, "unit": "Counts Per Minute"}, {"measurement": "Increased Proliferation (%)", "setting": "HaCat cells [4]; LL-37 10.00 μg/ml", "value": 39, "unit": "%"}, {"measurement": "Counts Per Minute (Mean)", "setting": "HaCat cells [4]; LL-37 25.00 μg/ml", "value": 76510, "unit": "Counts Per Minute"}, {"measurement": "Increased Proliferation (%)", "setting": "HaCat cells [4]; LL-37 25.00 μg/ml", "value": 45, "unit": "%"}, {"measurement": "Counts Per Minute (Mean)", "setting": "HaCat cells [4]; LL-37 50.00 μg/ml", "value": 65119, "unit": "Counts Per Minute"}, {"measurement": "Increased Proliferation (%)", "setting": "HaCat cells [4]; LL-37 50.00 μg/ml", "value": 23, "unit": "%"}, {"measurement": "Absorbance", "setting": "Human Wound Fibroblast; [5]", "value": 1.171}, {"measurement": "Increased Proliferation (%)", "setting": "Human Wound Fibroblast; [5]", "value": 49, "unit": "%"}, {"measurement": "Absorbance", "setting": "Human Wound Fibroblast; [6]", "value": 1.073}, {"measurement": "Increased Proliferation (%)", "setting": "Human Wound Fibroblast; [6]", "value": 37, "unit": "%"}, {"measurement": "Absorbance", "setting": "Human Wound Fibroblast; [7]", "value": 0.955}, {"measurement": "Increased Proliferation (%)", "setting": "Human Wound Fibroblast; [7]", "value": 22, "unit": "%"}, {"measurement": "Absorbance", "setting": "Human Wound Fibroblast; [8]", "value": 0.960}, {"measurement": "Increased Proliferation (%)", "setting": "Human Wound Fibroblast; [8]", "value": 22, "unit": "%"}, {"measurement": "Absorbance", "setting": "Human Normal Fibroblast; LL-37 25 μg/ml", "value": 0.597}, {"measurement": "Increased Proliferation (%)", "setting": "Human Normal Fibroblast; LL-37 25 μg/ml", "value": 7, "unit": "%"}, {"measurement": "Absorbance", "setting": "Human Normal Fibroblast; LL-37 50 μg/ml", "value": 0.626}, {"measurement": "Increased Proliferation (%)", "setting": "Human Normal Fibroblast; LL-37 50 μg/ml", "value": 12, "unit": "%"}, {"measurement": "Absorbance", "setting": "Human Normal Fibroblast; LL-37 100 μg/ml", "value": 0.669}, {"measurement": "Increased Proliferation (%)", "setting": "Human Normal Fibroblast; LL-37 100 μg/ml", "value": 19, "unit": "%"}]}
